Data set [1] relates to C. albicans (CCARM 140020). The data set can be described thus: microbe, parasite or virus in culture. It is filed as cell-based, Candida albicans. The following applies: fluconazole-resistant strain CCARM 140020; 24 to 30 h, 28 °C; read-out: Minimum Inhibitory Concentrations.
Another data set has as its system C. albicans (KCTC 7270). The data set can be described thus: microbe, parasite or virus in culture. It is filed as cell-based, Candida albicans. The note with it: 2 × 10^4 cells/mL, YPD/PBS, 24 to 30 h, 28 °C, read-out: Minimum Inhibitory Concentrations. The method, then:
(§1) The fungal strains C. albicans (KCTC 7270), C. catenulate (7642), C. intermidia (7234), C. rugosa (7324), C. glabrata (7219) and C. melibiosica (KCTC 7631) were cultured at 28 °C in appropriate media. Fungal cells (final concentration 2 × 10^4 cells/ mL) in 50 μL of YPD media (dextrose 2%, peptone 1% and yeast extract 0.5%) were seeded in each well of a microtiter plate containing 50 μL of two-fold serially diluted peptides in phosphate buffered saline. After incubation for 24 to 30 h at 28 °C, the lowest concentration of the peptides inhibiting the growth of the fungi was microscopically determined to be the minimum inhibitory concentrations (MICs). The effect of salt concentration on the antifungal activity of the peptides was tested by determining the MICs in the presence of NaCl and MgCl2. Fixed concentrations of NaCl (50, 100 and 150 mM) or MgCl2 (1, 2 and 5 mM) were added to the sodium phosphate buffer (pH 7.2). The effect of pH on the antifungal activity of the peptides was tested by determining peptide MICs in the presence of sodium phosphate buffer at a variety of pH values.

The subject of the next data set is C. melibiosica. The data set can be described thus: microbe, parasite or virus in culture. The note with it: C. melibiosica; read-out: Minimum inhibitory concentration. It is filed as cell-based, Candida melibiosica. The method, then:
as §1

Data set [2] relates to C. albicans (CCARM 14001). The data set can be described thus: microbe, parasite or virus in culture. It is filed as cell-based, Candida albicans. The following applies: fluconazole-resistant strain CCARM 14001; 24 to 30 h, 28 °C; read-out: Minimum Inhibitory Concentrations.
Data set [3] concerns C. albicans (CCARM 14007). The data set can be described thus: microbe, parasite or virus in culture. The following applies: fluconazole-resistant strain CCARM 14007; 24 to 30 h, 28 °C; read-out: Minimum Inhibitory Concentrations. It is filed as cell-based, Candida albicans.
In the next data set the test system is C. catenulate. Put plainly: microbe, parasite or virus in culture. The following applies: C. catenulate; read-out: Minimum inhibitory concentration. It is filed as cell-based, Candida catenulate. The method, then: as §1
The subject of a further data set is C. glabrata. Put plainly: microbe, parasite or virus in culture. The note with it: C. glabrata; read-out: Minimum inhibitory concentration. It is filed as cell-based, Candida glabrata. On the procedure:
as §1

The subject of data set [4] is C. albicans. Put plainly: Fluorescence microscopy of PI cell permeabilization. It is filed as cell-based, Candida albicans. The following applies: 8 μM KW4 or 4 μM melittin, 10, 20 and 30 min, 28 °C. On the procedure:
The cell permeability was monitored using the DNA-staining fluorescent probe PI as previously described. For this experiment, C. albicans cells were grown in YPD broth with shaking at 200 rpm overnight at 28 °C. Cells were harvested by centrifugation (4000 rpm for 10 min), washed and suspended in PBS to yield 2 × 10^6 cells/mL; 100 μL of C. albicans suspensions (2 × 10^6 cells/mL) were incubated with 5 μL from respective peptide aqueous stock solutions to yield a final peptide concentration of 8 μM KW4 peptide or 4 μM melittin (as a control peptide) for 10, 20 and 30 min at 28 °C. Next, PI was added to each sample at a final concentration of 1 μg/mL and the plate was incubated at 28 °C for 5 min. The effects of the peptides on C. albicans were visualized by the EVOS FL Auto 2 imaging system (Invitrogen, Waltham, MA, USA). Cells without added peptide served as a control.

Data set [5] can be described thus: Calcein leakage from fungal membrane mimetic liposomes. The note with it: 2.5 μM lipid, peptide 0.0–0.25 μΜ, 25 min, 25 °C; 100% = 0.1% Triton X-100; highest P/L ratio tested. The method, then:
(§2) Calcein-entrapped LUVs composed of PE–PC–PI–ergosterol (5:4:1:2, w/w/w/w) or PC–CH–SM (1:1:1, w/w/w) were prepared by mixing the dried lipid in buffer solution (containing 70 mM calcein, PBS, pH 7.4). The suspension was freeze-thawed in liquid nitrogen for nine cycles and then extruded through two stacked […] pore-size polycarbonate filters for 16 times using an Avanti Mini-Extruder (Avanti Polar Lipids Inc., Alabaster, AL, USA). Vesicles containing entrapped calcein were separated from free calcein by gel filtration chromatography on a Sephadex G-50 column. Entrapped LUVs in a suspension containing 2.5 μM lipids were then incubated with various concentrations of the peptide (0.0–0.25 μΜ) for 25 min. The release of calcein fluorescence was followed using a spectrofluorometer (Perkin-Elmer LS55, Mid Glamorgan, UK) with appropriate wavelengths (excitation, 480 nm; and emission, 520 nm). […] Spontaneous leakage was determined to be negligible on this timescale. […] The percentage of calcein release was calculated according to the following equation [41]:Release (%) = 100 × (F − Fo)/(Ft − Fo) (Ex. 480 nm and Em. 520 nm)(1) where F represent the fluorescence intensity before the addition of the detergent, Ft represents the fluorescence intensity after the addition of the detergent and Fo represents the fluorescence of the intact vesicles.

Data set [6] relates to C. albicans. Put plainly: SYTOX Green membrane permeabilization. It is filed as cell-based, Candida albicans. The note with it: 2 × 10^7 cells/mL, 1 µM SYTOX Green, followed for 120 min. On the procedure:
Membrane permeabilization of C. albicans was studied using the fluorescent dye SYTOX Green (Molecular Probes, Eugene, OR, USA). Fungal cells were grown to mid-logarithmic growth phase then centrifuged, washed and resuspended in PBS. Cells were suspended in PBS (2 × 10^7 cells/mL) and incubated with 1 µM SYTOX Green for 15 min in the dark prior to the influx assay. At 2–3 min after initiating data collection, 1/2× or 1× MIC peptides were added to the cell suspensions. Due to the binding of the dye to intracellular DNA, the increases in SYTOX Green fluorescence was measured for 120 min (excitation and emission wavelengths were 485 nm and 520 nm, respectively). Lysis of the cells in Triton X-100 (0.1%) or melittin gave maximum fluorescence.

Data set [7] relates to HaCaT (human keratinocyte) cells. The data set can be described thus: Cytotoxicity, MTT assay. It is filed as cell-based. The following applies: 24 h. On the procedure: We examined the cytotoxic effects of the peptides using HaCaT (human keratinocyte) cells, which were cultured in Dulbecco’s modified Eagle medium (DMEM) supplemented with antibiotics (100 U/mL penicillin, 100 µg/mL streptomycin) and 10% fetal calf serum at 37 °C in a humidified chamber with atmosphere containing 5% CO2. To measure viable cells and growth inhibition, an MTT colorimetric assay was used. A total of 4 × 10^3 cells was seeded per well into a 96-well plate incubated at 37 °C for 24 h. The next day, cells from plates were treated with various concentrations of the tested peptides. After 24 h incubation at 37 °C, MTT (10 μL) was added at a concentration of 5 mg/mL to each well. The culture supernatants were discarded after a further 4 h, and the remaining precipitate was dissolved by the addition of 100 μL of DMSO into the wells. Absorbance was then measured at a wavelength of 570 nm using an EL800 reader (Bio-Tek instruments, Inc., Winooski, VT, USA).

The subject of another data set is C. rugosa. Put plainly: microbe, parasite or virus in culture. It is filed as cell-based, Candida rugosa. The following applies: C. rugosa; read-out: Minimum inhibitory concentration. The method, then: as §1
For the next data set, the system named is C. intermedia. Put plainly: microbe, parasite or virus in culture. It is filed as cell-based, Candida intermedia. The following applies: C. intermedia; read-out: Minimum inhibitory concentration. On the procedure: as §1
The nature of data set [8]: Calcein leakage from eukaryotic membrane mimetic liposomes. The following applies: 2.5 μM lipid, peptide 0.0–0.25 μΜ, 25 min, 25 °C; 100% = 0.1% Triton X-100. On the procedure: as §2

In brackets after ≈: the same amount, converted by molar mass.

As to `CC[C@H](C)[C@H](NC(=O)CN)C(=O)NCC(=O)N[C@@H](C)C(=O)N[C@H](C(=O)N[C@@H](CC(C)C)C(=O)N[C@@H](CCCCN)C(=O)N[C@H](C(=O)N[C@@H](CC(C)C)C(=O)N[C@H](C(=O)N[C@H](C(=O)NCC(=O)N[C@@H](CC(C)C)C(=O)N1CCC[C@H]1C(=O)N[C@@H](C)C(=O)N[C@@H](CC(C)C)C(=O)N[C@H](C(=O)N[C@@H](CO)C(=O)N[C@@H](Cc1c[nH]c2ccccc12)C(=O)N[C@H](C(=O)N[C@@H](CCCCN)C(=O)N[C@@H](CCCNC(=N)N)C(=O)N[C@@H](CCCCN)C(=O)N[C@@H](CCCNC(=N)N)C(=O)N[C@@H](CCC(N)=O)C(=O)N[C@@H](CCC(N)=O)C(N)=O)[C@@H](C)CC)[C@@H](C)CC)[C@@H](C)O)[C@@H](C)O)C(C)C)C(C)C` [Melittin, melittin, reference compound], the MIC in [1] stood at 8 µM (≈ 22.8 µg/mL); in the data set on C. albicans (KCTC 7270) it was 4 µM; with C. melibiosica it was 8 µM; in [2], 16 µM (≈ 45.5 µg/mL); in [3], 8 µM (≈ 22.8 µg/mL); with C. catenulate, 8 µM. Also, the MIC in the data set with C. glabrata is reported as 4 µM; in the data set with C. rugosa, 8 µM; in the data set on C. intermedia it was 8 µM. Further, the “PI uptake seen by fluorescence microscopy” value in the data set with C. albicans [4] is given as “allowed the uptake of PI”. Also, the “Calcein leakage from PE–PC–PI–ergosterol liposomes” value in [5] is 80%. Moreover, the “Time to complete membrane permeabilization (SYTOX green)” value in the data set on C. albicans [6] is given as not above 35 min. Further, the “Cytotoxicity against HaCaT cells” value in data set [7] (12.5 μM) came out at 100%. In data set [7] (HaCaT cells, 200 µM peptide), this compound returned a Cell survival of 0%. Moreover, the “Calcein leakage from PC–CH–SM liposomes” value in data set [8] is given as 90%.

The values are drawn from paper PMC7285485, “Antifungal and Antibiofilm Activities and the Mechanism of Action of Repeating Lysine-Tryptophan Peptides against Candida albicans” (Microorganisms, 2020).
